Results taken from US20260144753A1, “MULTIVALENT IONIZABLE LIPID DELIVERY SYSTEMS” (Factor Bioscience Inc., priority 2023, published 2026).
“Also recorded” adds a separate entry of the source. Where two headings read alike, the source gives them in different places. Each block holds one compound with its values, some of them ahead of it.

Tests used:
[1] = system: THP-1 monocytes; assay: Viability of THP-1 monocytes after transfection, Cell Titer Glo; format: cell-based, human
Method: Relative viability was determined using a Cell Titer Glo viability assay and calculating viability relative to untransfected cells.

[2] = system: THP-1 human monocyte cell line; assay: THP-1 monocyte transfection efficiency, GFP mRNA lipoplexes and LNPs, flow cytometry; format: cell-based; conditions: for transfection efficiency in lipoplex screen (in words): Family D lipoplexes, lipid:mRNA weight ratio of 2:1, THP-1; for in vitro transfection efficiency, LNP form (in words): LNPs
Method: (§1) LNPs were formulated through bulk mixing using a molar ratio of 50:38.5:10:1.5 (ionizable lipid/cholesterol/DSPC/DMG-PEG2000) and a 0.067 weight ratio of mRNA to ionizable lipid. Lipoplexes were formulated at various weight ratios of lipid:mRNA, and mRNA loading efficiency was determined via gel electrophoresis.
To evaluate transfection efficiency and cytotoxicity, THP-1 monocytes and Jurkat T cells were transfected with lipoplexes and lipid nanoparticles.
Density plots are shown of GFP+ transfected cells from doses of 2000 ng RNA per 120,000 cells for each formulation.
These 5 lipids are all in the Family D with a spermine headgroup and bis 2-hexyldecanoate tails. Lipids are listed in order of increasing carbon spacer link length. Lipoplexes were created using a lipid:mRNA weight ratio of 2:1 for each formulation.
The measured diameter of the Compound XVI lipoplexes was 359 nm. Compound XVI also functioned effectively as a solid LNP when using a molar ratio of 50:38.5:10:1.5 (ionizable lipid/cholesterol/DSPC/DMG-PEG2000) and a 0.12 weight ratio of mRNA to ionizable lipid. […] The ability to efficiently target blood cells using lipid delivery systems opens the door to a variety of applications, including potent in vivo mRNA delivery and cell reprogramming. […]

[3] = Zeta potential of nanoparticle formulation; format: physicochemical; conditions: LNPs, at a pH of 7.0
[4] = system: Jurkat T cells; assay: Jurkat T cell transfection efficiency of lipoplex formulations, flow cytometry; format: cell-based; conditions: lipoplexes, 100 ng RNA per 100,000 cells, compared to other lipids in Family D
Method: To evaluate transfection efficiency and cytotoxicity, THP-1 monocytes and Jurkat T cells were transfected with lipoplexes and lipid nanoparticles. […] A screen of 4 lipoplex formulations was analyzed using flow cytometry for doses of 100 ng RNA per 100,000 cells.

[5] = Encapsulation efficiency of LNPs, RiboGreen assay; format: physicochemical; conditions: for average encapsulation efficiency (%): RiboGreen
Method: as §1, with “electrophoresis. […] Encapsulation efficiency of LNPs was measured using a RiboGreen assay.” for “electrophoresis.”

[6] = Dynamic light scattering, hydrodynamic diameter of the nanoparticles; format: physicochemical
Method: […] Lipoplexes were formulated at various weight ratios of lipid:mRNA, and mRNA loading efficiency was determined via gel electrophoresis. […] Dynamic light scattering (DLS) was used to determine hydrodynamic diameter of the nanoparticles, graphed as number particle size distribution. Polydispersity index (PDI) was also measured.

[7] = system: HEKn cells; assay: LNP transfection efficacy in HEKn cells, mean GFP fluorescence intensity; format: cell-based; conditions: increasing amounts of mRNA
Method: Experiments were conducted to characterize LNP transfection efficacy of Compound XXXV in HEKn cells. A performance comparison was run between control (ToRNAdo lipoplex) and test subject Compound XXXV LNP with increasing amounts of mRNA, with other variables held constant. […] Mean GFP fluorescence intensity was calculated using Operetta® Harmony software. […] An experiment was conducted to characterize lipoplex efficiency in Jurkat cells. A performance comparison was run between control (Lipofectamine 3000) and spermine bis hexyldecanoate ionizable lipid compounds with varying tether length (3-7). Lipid:mRNA weight ratios were optimized for each lipid as determined by gel electrophoresis (Compound XX (2:1), Compound XXVIII (2.5:1), Compound XIX (1:2), Compound XVI (2.5:1), Compound XXIV (1:1)). […] The bottom panels (“Neg.”) of FIG. 57 depict negative control experiments wherein no RNA was delivered.

[8] = system: rat dermal tissue; assay: Intradermal injection of lipid-complexed GFP mRNA in rats; format: in vivo; conditions: 2000 ng GFP mRNA, 48 hours
Method: In this Example, in vivo experiments were carried out in rats to investigate the transfection and expression efficiency of RNA complexed with the lipids of the present disclosure.
2000 ng of DLinDHS-complexed GFP mRNA was administered to rats by intradermal injection. After 48 hours, the injection site was fixed and stained (anti-rabbit GFP).

Structure (SMILES): CCCCCCCCC(CCCCCC)C(=O)OCCCCCN(CCCN)CCCCN(CCCN)CCCCCOC(=O)C(CCCCCC)CCCCCCCC (stereo not drawn) [Compound XIX]
- toxicity, relative viability of THP-1 monocytes after transfection (in words) [1]: greatest toxicity
- transfection efficiency in lipoplex screen (in words) [2]: greatest transfection efficiency

- surface charge [3]: +3.6 mV
- average encapsulation efficiency (%) [5]: 87.0%
- half-maximal effective concentration (EC50) ([2]; lipoplexes, GFP mRNA, THP-1): 147 ng RNA per 50,000 cells
- measured diameter of the lipoplexes ([6]; lipoplexes): 359 nm
- diameter of LNPs ([6]; solid LNP, molar ratio 50:38.5:10:1.5 (ionizable lipid/cholesterol/DSPC/DMG-PEG2000), 0.12 weight ratio of mRNA to ionizable lipid): 170 nm
Structure (SMILES): CCCCCCCCC(CCCCCC)C(=O)OCCCCCCN(CCCN)CCCCN(CCCN)CCCCCCOC(=O)C(CCCCCC)CCCCCCCC (stereo not drawn) [Compound XVI, (butane-1,4-diylbis((3-aminopropyl)azanediyl))bis(hexane-6,1-diyl) bis(2-hexyldecanoate)]
- transfection in the Jurkat T cell line (in words) [4]: greatest transfection
- toxicity, viability of THP-1 monocytes after transfection (in words) [1]: significantly greater toxicity than respective Compound XVI lipoplexes
- encapsulation efficiency of LNPs (in words) [5]: near complete encapsulation efficiency; also recorded: greater encapsulation of mRNA
- transfection efficiency in lipoplex screen (in words) [2]: greatest transfection efficiency
- in vitro transfection efficiency, LNP form (in words) ([2]; GFP mRNA, THP-1): greater in vitro transfection efficiency than the clinically used Dlin-MC3-DMA LNPs; also recorded: greater in vitro transfection efficiency of THP-1 monocytes than commercially-available controls
- in vitro transfection efficiency, lipoplex form (in words) ([2]; lipoplexes, GFP mRNA, THP-1): greatest transfection efficiency; also recorded: greater in vitro transfection efficiency of THP-1 monocytes than commercially-available controls

Structure (SMILES): CCCCCCCCC(CCCCCC)C(=O)OCCCCCCN(CCCCN(CCCCCCOC(=O)C(CCCCCC)CCCCCCCC)CC(O)CN)CC(O)CN (stereo not drawn) [Compound XXXV, (butane-1,4-diylbis((3-amino-2-hydroxypropyl)azanediyl))bis(hexane-6,1-diyl) bis(2-hexyldecanoate)]
- LNP transfection into HEKn cells, mean GFP fluorescence intensity (in words) [7]: successful transfection into HEKn cells with diminishing returns as mRNA dosage increased

Structure (SMILES): CCCCC/C=C\C/C=C\CCCCCCCCC(CCCCCCCC/C=C\C/C=C\CCCCC)OC(=O)CCCN(C)C [DLin-MC3-DMA, reference compound]
- toxicity, viability of THP-1 monocytes after transfection (in words) ([1]; LNPs and lipoplexes (FIG. 10)): very little toxicity
- average encapsulation efficiency (%) [5]: 61.7%
- in vitro transfection efficiency, LNP form (in words) ([2]; GFP mRNA, THP-1): low transfection efficiency

Structure (SMILES): CCCCC/C=C\C/C=C\CCCCCCCCN(CCCCN(CCCCCCCC/C=C\C/C=C\CCCCC)CC(O)CN)CC(O)CN (stereo not drawn) [DLinDHS, N^1,N^4-dilinoleyl-N^1,N^4-di-(2-hydroxy-3-aminopropyl)-diaminobutane]
- GFP reporter expression after intradermal injection (in words) [8]: localized expression in the dermal layer
